Results published in patent US20200131473A1, “METHOD OF GENERATING 2 CELL-LIKE STEM CELLS” (IFOM FONDAZIONE ISTITUTO FIRC DI ONCOLOGIA MOLECOLARE, priority 2017, published 2020).
Entries after “also recorded” stand apart in the source; their conditions may differ.

Assays:
morula-stage embryos = test: Mouse chimaera assay; format: in vivo; conditions: APH-treated mCherry ESCs injected into morula, 24 hrs post injection; 7 out of 35
Experimental: Briefly, morula stage embryos were bought from Charles River laboratories. They were thawed few hours prior to injection and about five to eight ESC were injected into the perivitelline space of high quality morula-stage embryos using laser-assisted technique and glass micro-capillary tubes. Finally, embryos were cultured for 24 hours at 37 C, 5% CO2 to allow the blastocysts development prior to the microscopic analysis.
For ETAA-1 inducible cells, 8-cell morulae were obtained from superovulated C57BL/6 prepubescent females from Janvier Labs. Ten ESCs were injected into each morula after piercing their zona pellucida with beveled microinjection needle. Embryos were kept in M2 medium during the injection and afterwards in KSOM medium at 37° C. under 5% CO2. Morulae were either cultured for 48 hrs to study ESC contribution at late blastocyst stage (E4.5), or transferred to pseudopregnant females and later dissected at E7.5. Chimerism and ESC contribution to the various embryonic layers were assessed by emission of mCherry fluorescence signal.
For the APH-treated ESCs, frozen morula-stage embryos were purchased from Charles River and Janvier laboratories. Embryos were thawed 2 hrs prior to injection and 4 to 8 ESCs were transferred into the perivitelline space by laser-assisted microinjection method. […]

[1] = test system: 2C-like genes (Zscan4, MuERV-L/MERVL, Dux) in ESCs (E14, R1); test: qPCR for 2C-like specific genes in ESCs; format: cell-based, mouse
Experimental: All treatments including APH, HU, UV, ATRi, ATMi and Chk1i were added in to fresh ESC medium and the cells were kept in 37° C. and 3% 02 tension for overnight (16-17 hrs) unless mentioned in each particular result section. APH was used at various concentrations ranging from 0.3 uM to 6 uM that is mentioned in each experiment in order to induce mild to acute replication stress response. Similarly, HU was used at 0.1 mM-3 mM. ATMi (KU-55933) and ATRi (VE 822) were used at the concentration of 10 uM and 1 uM respectively. Moreover, Chk1i (UCN-01) at the concentration of 100 nM was used. UV radiation was performed at the dosage ranging from 2 to 10 J/m2. For induction of ETAA1-AAD expression, Dox was used at the concentration of 1 μg/mL for 48 hrs.
(§1) RNA was extracted using RNeasy mini kit (QIAGEN), quantified by NanoDrop spectrophotometer and cDNA was prepared from 2 μg total DNA-depleted RNA using SuperScript™ III reverse transcriptase kit (Invitrogen cat #18080-093) following manufacturer's instructions. qPCR assay performed based on standard protocol using 10× SsoFast™ EvaGreen® Supermix or later 1× LightCycler 480 SYBR Green I Master (Roche, 04707516001), 0.5 μM primer mix and 5 ng of cDNA. GAPDH was used as internal control to normalise the qPCR data following ΔΔCt method, 10 μM primer mix and a total amount of cDNA corresponding to 5 ng of starting RNA for each reaction.

[2] = test system: mouse embryonic fibroblast (MEF) lines; test: qPCR for 2C-specific markers in MEF lines; format: cell-based; conditions: two MEF lines with distinct genetic backgrounds
Experimental: ESCs were grown in feeder free culture condition either with or without 0.1% gelatin coat and incubated in 37° C. and 3% 02 tension. ESC medium (high glucose DMEM (DMEM Media—GlutaMAX™-I, Gibco)), 15% ESC qualified FBS (HyClone™ Fetal Bovine Serum), 2 mM L-glutamine, 1/500 home-made leukemia inhibitory factor, 0.1 mM non-essential amino acids, 0.1 mM 2-bmercaptoethanol, 50 units/ml penicillin, […] streptomycin, 1 mM Sodium Pyruvate) supplemented with two inhibitors (2i from Axon medchem) that are PD 0325901; highly specific non-ATP-competitive inhibitor of MEK (aka MKK) 1/2 at final concentration of 1 uM and CHIR 99021; specific glycogen synthase kinase GSK-3 inhibitor at final concentration of 3 uM. MEF cells were cultured in MEF medium (high glucose DMEM (Lonza), 10% north America FBS, 2 mM L-glutamine, 0.1 mM non-essential amino acids, 50 units/ml penicillin, 1 mM Sodium Pyruvate and […] streptomycin).
as §1, with “GAPDH was used as internal control to normalise the qPCR data following ΔΔCt method, 10 μM primer mix and a total amount of cDNA corresponding to 5 ng of starting RNA for each reaction.” left out

## C[C@@]1(CO)[C@H](O)CC[C@@]2(C)[C@H]1CC[C@H]1C[C@@H]3C[C@@]12CC[C@]3(O)CO [APH, aphidicolin]
morula-stage embryos
  chimeric embryos with contribution to the trophectoderm layer of the blastocysts: 20%
[1]; APH treatment
  expression of key 2C-like genes in DUX KO ESCs: could not induce
  main 2C-like genes, qPCR validation of profiling: significant upregulation
[1]; APH treatment, unlike normal wild type ESC
  expression of 2C-like genes in ATR Seckel ESCs: milder increase; also recorded: mild increase
[1]; ESC lines E14 and R1, time and dosage-dependent
  expression of Zscan4 and MuERV-L (QPCR and FACS): significantly upregulated
[2]
  expression of main 2C-specific markers such as MuERV-L in MEF lines: do not alter
